Tests used:
[1] = target: T1, human recombinant ghrelin receptor (GHS-R1a) (Homo sapiens, UniProt Q92847); experiment: hGHS-R1a Ca assay (Fluo-4 calcium assay in CHO-K1 cells); format: cell-based; conditions: CHO-K1 cells expressing human GHS-R1a; agonist dose response up to 30 μM
T1 construct: host or cells: CHO-K1
Protocol: (§1) Chinese hamster ovary (CHO-K1) cells expressing human recombinant ghrelin receptor (GHS-R1a) were purchased from Euroscreen (ES-410-C) and propagated in UltraCHO medium containing glutamine and supplemented with 1% heat inactivated foetal calf serum (FCS), 100 U/ml penicillin, 100 mg/l streptomycin and 0.8 g/l geneticin. Cells were sub-cultured twice a week with a 1:10 dilution. For passaging, cells were washed with 1×DPBS without calcium and magnesium, trypsinised for 10 min with 0.05% Trypsin/EDTA and resuspended in cell culture medium.
Cells were diluted to achieve 1×10^6 cells/ml, seeded in 384-well black clear bottom CellBind plates at 25000 cells/well (25 ul) and incubated overnight at 37° C./5% CO2 Cells were expected to be 85-90% confluent on the day of assay (checked under the microscope) to ensure a high quality assay. Media was manually removed and 40 μl of loading solution containing probenecid and Fluo-4 no wash dye (a calcium indicator, Invitrogen F36206) were added to each well. After 30 min at 37° C. followed by another 30 min at RT, cpds were added to the wells. To generate a dose response up to 30 μM, 10 mM compound stocks in 100% (v/v) DMSO were firstly diluted in 50% (v/v) DMSO. Then, serial dilutions aimed at a full logarithmic dose responses (8 point) were performed in assay buffer [1×HBSS, 20 mM Hepes, 0.1% (w/v) BSA] to give 2.5% (v/v) DMSO and 5× final compound concentrations. The final assay DMSO concentration was 0.5% (v/v). After loading the cells with Fluo-4 containing solution, plates were read on a CellLux instrument (Perkin Elmer). A protocol set up to add 10 μl of 5× compound and to read the plate for 60 sec after adding the compound at 17th sec was used. Fluorescence excitation took place at 494 nm and emission at 516 nm. EC50 values of agonists were calculated by fitting the percent stimulation over background [(Max−Min)/Min] using the nonlinear logistic function of the Prism 5 software (GraphPad, USA).

[2] = target: T1, human recombinant ghrelin receptor (GHS-R1a); experiment: hGHS-R1a cAMP assay (HTRF cAMP dynamic 2 kit, CHO-hGHS-R1a cells); format: cell-based; conditions: 60 min incubation, dose response up to 30 μM
Protocol: as §1
The Homogeneous Time-Resolved Fluorescence (HTRF) cAMP dynamic 2 kit (Cisbio International, France) was used as follows. CHO-hGHS-R1a or CHO-rGHS-R1a cells were seeded in a volume of 25 μl culture media at 10,000 cells/well (400,000 cells/ml) in Greiner white 384-well high volume plates and incubated overnight (18-24 h) at 37° C./5% CO2. Then, media was removed and 6 μl assay buffer [HBSS, 10 mM Hepes, 0.2% (w/v) BSA, 1.7 mM IBMX, (pH7.4)] were added to the wells. To generate a dose response up to 30 μM, 10 mM compound stocks in 100% (v/v) DMSO were firstly diluted in 50% (v/v) DMSO followed by a further dilution into assay buffer. Then, 4 μl of 2.5× compound (dose response as 9 point log serial dilution in assay buffer from 30 μM as maximum concentration) were added to each well achieving a final DMSO assay concentration of 0.8% (v/v). 0.1 μM forskolin was added as positive control. After 30 min (rGHS-R1a cell line) or 60 min (hGHS-R1a cell line) incubation at 37° C./5% CO2, 5 μl of cAMP-d2 and 5 μl of anti-cAMP antibody-cryptate, (both made in lysis buffer), were added to the plate followed by 1 h incubation at RT. During this time, cAMP produced by the cells competed with cAMP-d2 for the anti-cAMP antibody-cryptate molecule. Then, the plate was read on the Pherastar instrument (BMG, Germany) at two different emission wavelengths (620 and 650 nm). Increasing levels of endogenous cAMP produced by cells could be followed by a decrease of FRET fluorescent signal and viceversa. Values represented by a change in arbitrary fluorescence ratios (665/620) were converted into cAMP concentrations by using a standard curve, the reagents for which were supplied with the kit. EC50 values of agonists were calculated using the nonlinear logistic function of the Prism 5 software (GraphPad, USA). Emax were expressed as relative values of the ghrelin response, which was defined as 100%.

[3] = Aqueous solubility of crystalline L-malate salt forms compared to free base amorphous form; format: physicochemical; conditions: crystalline L-malate salt compared to the free base amorphous form

T1 sequence (Q92847 whole entry): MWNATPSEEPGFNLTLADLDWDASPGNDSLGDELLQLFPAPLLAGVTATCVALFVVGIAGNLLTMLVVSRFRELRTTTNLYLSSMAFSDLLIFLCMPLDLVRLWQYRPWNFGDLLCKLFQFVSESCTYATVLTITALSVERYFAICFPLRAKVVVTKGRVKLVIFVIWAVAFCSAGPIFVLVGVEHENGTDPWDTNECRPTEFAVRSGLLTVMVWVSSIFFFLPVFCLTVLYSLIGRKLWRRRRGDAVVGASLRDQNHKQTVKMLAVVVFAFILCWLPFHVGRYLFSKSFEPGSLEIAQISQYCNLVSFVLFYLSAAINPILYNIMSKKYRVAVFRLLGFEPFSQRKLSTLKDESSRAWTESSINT

Compound | EC50 [1] | EC50 [2] | aqueous solubility [3]
CN1CC(c2ccccc2)C2(CCCN(C(=O)[C@@H](COCc3ccccc3)NC(=O)C(C)(C)N)CC2)C1=O (single isomer, unassigned) [Example 9.0(iv)] | 0.0004 µM | 0.086 µM | –
CN1C[C@@H](c2ccccc2)[C@@]2(CCCN(C(=O)[C@@H](COCc3ccccc3)NC(=O)C(C)(C)N)C2)C1=O.O=C(O)C[C@H](O)C(=O)O [2-Amino-N-[(R)-1-benzyloxymethyl-2-((4S,5R)-2-methyl-1-oxo-4-phenyl-2,7-diaza-spiro[4.5]dec-7-yl)-2-oxo-ethyl]-2-methyl-propionamide L-malate salt] | – | – | increased aqueous solubility
Cc1ccc(C2CN(C)C(=O)C23CCCN(C(=O)[C@@H](COCc2ccccc2)NC(=O)C(C)(C)N)C3)cc1.O=C(O)C[C@H](O)C(=O)O (stereo partly drawn) [2-amino-N-((2R)-3-(benzyloxy)-1-(2-methyl-1-oxo-4-p-tolyl-2,7-diazaspiro[4.5]decan-7-yl)-1-oxopropan-2-yl)-2-methylpropanamide L-malate salt] | – | – | increased aqueous solubility
CN1C[C@@H](c2ccc(F)cc2)[C@@]2(CCCN(C(=O)[C@@H](COCc3ccccc3)NC(=O)C(C)(C)N)C2)C1=O.O=C(O)C[C@H](O)C(=O)O [2-amino-N-((2R)-3-(benzyloxy)-1-((4S,5R)-4-(4-fluorophenyl)-2-methyl-1-oxo-2,7-diazaspiro[4.5]decan-7-yl)-1-oxopropan-2-yl)-2-methylpropanamide L-malate salt] | – | – | increased aqueous solubility
CCC(N)(CC)C(=O)N[C@H](COCc1ccccc1)C(=O)N1CCC[C@@]2(C1)C(=O)N(C)C[C@H]2c1ccccc1 [Example 1.71, 2-amino-N-((R)-3-(benzyloxy)-1-((4S,5R)-2-methyl-1-oxo-4-phenyl-2,7-diazaspiro[4.5]decan-7-yl)-1-oxopropan-2-yl)-2-ethylbutanamide] | 0.0054 µM | 1.14 µM | –
CN1CC(c2ccccc2)C2(CCCN(C(=O)[C@@H](COCc3ccccc3)NC(=O)C(C)(N)C(F)(F)F)C2)C1=O (stereo partly drawn) [Example 1.73, 2-amino-N-((2R)-3-(benzyloxy)-1-(2-methyl-1-oxo-4-phenyl-2,7-diazaspiro[4.5]decan-7-yl)-1-oxopropan-2-yl)-3,3,3-trifluoro-2-methylpropanamide] | 3.32 µM | ≥ 30 µM | –
CC(C)(C)CN1CC(c2ccccc2)C2(CCCN(C(=O)[C@@H](COCc3ccccc3)NC(=O)C(C)(C)N)C2)C1=O (stereo partly drawn) [Example 1.75, 2-amino-N-((2R)-3-(benzyloxy)-1-(2-neopentyl-1-oxo-4-phenyl-2,7-diazaspiro[4.5]decan-7-yl)-1-oxopropan-2-yl)-2-methylpropanamide] | 0.0036 µM | 0.302 µM | –

More lines, now with the values ahead:

EC50 [1] | EC50 [2] | aqueous solubility [3] | Compound
0.00017 µM | 0.138 µM | – | CN1CC(c2ccccc2)C2(CCCN(C(=O)[C@@H](COCc3ccc(F)cc3)NC(=O)C(C)(C)N)C2)C1=O (single isomer, unassigned) [Example 7.0, 2-Amino-N-[(R)-1-(4-fluoro-benzyloxymethyl)-2-(4S,5R)-2-methyl-1-oxo-4-phenyl-2,7-diaza-spiro[4.5]dec-7-yl)-2-oxo-ethyl]-2-methyl-propionamide or 2-Amino-N-[(R)-1-(4-fluoro-benzyloxymethyl)-2-(4R,5S)-2-methyl-1-oxo-4-phenyl-2,7-diaza-spiro[4.5]dec-7-yl)-2-oxo-ethyl]-2-methyl-propionamide]
0.0001 µM | 0.055 µM | – | CN1C[C@@H](c2ccc(F)cc2)[C@@]2(CCCN(C(=O)[C@@H](COCc3ccccc3)NC(=O)C(C)(C)N)C2)C1=O [Example 1.2, 2-Amino-N-((2R)-3-(benzyloxy)-1-((4S,5R)-4-(4-fluorophenyl)-2-methyl-1-oxo-2,7-diazaspiro[4.5]decan-7-yl)-1-oxopropan-2-yl)-2-methylpropanamide]
0.005 µM | 2.56 µM | – | Cc1ccc(COC[C@@H](NC(=O)C(C)(C)N)C(=O)N2CCCC3(C2)C(=O)N(C)CC3c2ccc(F)cc2)cc1 (stereo partly drawn) [Example 1.72, 2-amino-N-((2R)-1-(4-(4-fluorophenyl)-2-methyl-1-oxo-2,7-diazaspiro[4.5]decan-7-yl)-3-((4-methylbenzyl)oxy)-1-oxopropan-2-yl)-2-methylpropanamide]
0.0054 µM | 5.9 µM | – | COc1ccc(C2CN(C)C(=O)C23CCCN(C(=O)[C@@H](COCc2ccccc2)NC(=O)C(C)(C)N)C3)cc1 (stereo partly drawn) [Example 1.74, 2-amino-N-((2R)-3-(benzyloxy)-1-(4-(4-methoxyphenyl)-2-methyl-1-oxo-2,7-diazaspiro[4.5]decan-7-yl)-1-oxopropan-2-yl)-2-methylpropanamide]

— patent publication US8546416B2, “3-spirocyclic piperidine derivatives as ghrelin receptor agonists” (Novartis AG, priority 2011, dated 2013)
